This is an account of results in patent publication US20080044436A1, “Method for Screening and Compositions for Treating Cancers” (priority 2004, published 2008).

For this experiment, the target named is T1, PR (Homo sapiens, UniProt P06401).
T1 construct: made in house; host or cells: PR-B: rabbit reticulocyte lysate / T7 RNA polymerase in vitro translation (Promega)
T1 sequence (P06401 1-933): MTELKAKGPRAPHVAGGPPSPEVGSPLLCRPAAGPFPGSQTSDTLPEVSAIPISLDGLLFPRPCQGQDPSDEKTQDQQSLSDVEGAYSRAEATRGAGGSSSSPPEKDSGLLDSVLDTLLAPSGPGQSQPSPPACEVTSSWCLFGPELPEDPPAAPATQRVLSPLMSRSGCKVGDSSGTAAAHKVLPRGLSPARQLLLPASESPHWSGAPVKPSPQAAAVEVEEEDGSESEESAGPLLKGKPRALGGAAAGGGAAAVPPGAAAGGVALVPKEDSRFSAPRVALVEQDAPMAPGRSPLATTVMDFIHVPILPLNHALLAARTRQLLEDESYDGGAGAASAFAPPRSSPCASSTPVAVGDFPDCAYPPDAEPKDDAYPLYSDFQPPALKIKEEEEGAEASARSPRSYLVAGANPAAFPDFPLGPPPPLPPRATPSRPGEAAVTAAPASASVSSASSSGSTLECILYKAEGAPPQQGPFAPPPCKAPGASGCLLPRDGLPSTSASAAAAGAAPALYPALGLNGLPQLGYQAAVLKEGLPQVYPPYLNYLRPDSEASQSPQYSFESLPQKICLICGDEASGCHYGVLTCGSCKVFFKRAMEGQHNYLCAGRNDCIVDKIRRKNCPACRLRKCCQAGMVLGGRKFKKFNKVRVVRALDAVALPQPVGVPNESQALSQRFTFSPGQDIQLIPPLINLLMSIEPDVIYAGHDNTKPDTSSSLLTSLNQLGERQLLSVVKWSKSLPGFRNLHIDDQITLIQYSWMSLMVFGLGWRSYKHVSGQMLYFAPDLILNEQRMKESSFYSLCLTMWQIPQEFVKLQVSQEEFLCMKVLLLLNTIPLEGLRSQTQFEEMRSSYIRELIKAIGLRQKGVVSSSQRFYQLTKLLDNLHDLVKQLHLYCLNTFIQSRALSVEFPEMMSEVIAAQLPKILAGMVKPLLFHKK
T1 sequence (Q96PN7 1-1200 partner): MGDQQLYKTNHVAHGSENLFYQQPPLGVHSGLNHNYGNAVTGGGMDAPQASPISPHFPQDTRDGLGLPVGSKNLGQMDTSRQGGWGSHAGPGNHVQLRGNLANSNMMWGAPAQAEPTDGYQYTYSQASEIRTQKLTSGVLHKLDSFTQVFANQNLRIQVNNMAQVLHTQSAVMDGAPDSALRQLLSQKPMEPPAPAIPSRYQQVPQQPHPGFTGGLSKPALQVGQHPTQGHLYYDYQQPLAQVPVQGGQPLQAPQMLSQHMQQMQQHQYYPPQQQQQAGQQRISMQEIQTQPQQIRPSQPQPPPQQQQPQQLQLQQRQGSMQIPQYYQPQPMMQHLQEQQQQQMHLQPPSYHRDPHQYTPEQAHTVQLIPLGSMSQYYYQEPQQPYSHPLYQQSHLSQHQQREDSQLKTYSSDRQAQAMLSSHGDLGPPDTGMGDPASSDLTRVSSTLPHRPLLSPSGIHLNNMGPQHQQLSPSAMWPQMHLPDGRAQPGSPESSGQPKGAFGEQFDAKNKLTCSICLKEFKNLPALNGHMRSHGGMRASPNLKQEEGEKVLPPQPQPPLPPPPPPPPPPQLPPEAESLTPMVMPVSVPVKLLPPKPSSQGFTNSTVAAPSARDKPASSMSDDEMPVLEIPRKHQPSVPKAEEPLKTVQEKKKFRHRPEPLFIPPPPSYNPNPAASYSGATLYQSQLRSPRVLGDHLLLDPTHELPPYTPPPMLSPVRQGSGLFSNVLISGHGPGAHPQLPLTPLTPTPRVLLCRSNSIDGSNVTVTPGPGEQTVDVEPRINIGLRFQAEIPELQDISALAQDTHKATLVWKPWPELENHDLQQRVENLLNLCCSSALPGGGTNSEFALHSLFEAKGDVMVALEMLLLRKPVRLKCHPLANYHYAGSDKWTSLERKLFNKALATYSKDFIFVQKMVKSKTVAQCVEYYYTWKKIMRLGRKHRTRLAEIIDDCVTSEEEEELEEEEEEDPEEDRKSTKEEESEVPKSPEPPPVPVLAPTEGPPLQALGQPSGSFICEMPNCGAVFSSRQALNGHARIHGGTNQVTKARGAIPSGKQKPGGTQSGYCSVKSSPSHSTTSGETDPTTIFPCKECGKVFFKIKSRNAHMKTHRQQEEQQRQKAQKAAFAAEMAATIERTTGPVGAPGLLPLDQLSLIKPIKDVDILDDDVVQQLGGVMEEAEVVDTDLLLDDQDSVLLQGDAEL
Kind of experiment: GST pull-down, TReP-132 and PR. The experiment is classed as binding. As to the method: FIG. 14D left: GST-TReP-132 immobilized on glutathione-Sepharose was incubated with ^35-[S]-methionine-labelled PR, in the absence or with increasing concentrations of progesterone (0-10 μM). Specific interactions were analyzed by comparison with the results obtained by incubating GST with ^35-[S]-PR, in the presence of 100 μM progesterone (GST).
FIG. 14D right: GST-TReP-132 wt, GST-TReP-132 ml (mutated at the LRQLL site) and GST-TReP-132 m2 (mutated at the LEMLL site) were analyzed for interaction with ^35-[S]-PR as described earlier, in the presence of 10 μM progesterone. Input PR: 1/10th of the radiolabelled PR level used in the experiments.
In order to evaluate the interaction of TReP-132, Sp1, ER and PR, the wt and mutant GST-TReP-132 fusion proteins were expressed, then immobilized on glutathione-Sepharose as described (Frangioni and Neel, 1993; Monte et al., 1998). The ^35S-[Sp1], ^35S-[ER] and ^35S-[PR-B] proteins were synthesized in vitro using a rabbit reticulocyte lysate and T7 RNA polymerase system as directed by the manufacturer (Promega Corporation, Madison, Wis.). Proteins which bound, then detached from the Sepharose after being heated to boiling in SDS buffer were then separated on a 10% SDS-PAGE gel. The gels were stained with Coomassie blue, dried and autoradiographed.

For `CC(=O)[C@H]1CC[C@H]2[C@@H]3CCC4=CC(=O)CC[C@]4(C)[C@H]3CC[C@]12C` [progesterone, reference compound], the “TReP-132/PR interaction in presence of progesterone” value (GST-TReP-132 and 35S-PR, progesterone 0-10 μM) is given as “increased in a dose-dependent manner”.

B1: TReP-132: Transcriptional Regulating Protein of 132 kDa, polypeptide comprising SEQ ID NO: 2; here expressed in cells from vectors (protein)
chain: T1 sequence (Q96PN7 1-1200 partner)
Consider B1, for which, under “GST pull-down with 35S-PR”, the “interaction with PR” value is listed as “interact”.
